# From ChEMBL document CHEMBL3045733, “3D-QSAR and molecular docking studies of hydroxamic acids as peptide deformylase inhibitors” (Med Chem Res, 2012)
# Assay: Inhibition of peptide deformylase using N-formylmethionine-alanine-serineas substrate incubated for 10 min before substrate addition by PDF-FDH coupled assay
row,SMILES,pIC50
1,CCCC[C@@H](C(=O)N1CCC[C@H]1C(=O)N1CCCC1)[C@H](O)C(=O)NO,7.62
2,CCCC[C@@H](C(=O)N1CCC[C@H]1C(=O)N1CCCCC1)[C@H](O)C(=O)NO,7.89
3,CCCC[C@@H](C(=O)N1CCC[C@H]1C(=O)N1CCN(c2ccccc2F)CC1)[C@H](O)C(=O)NO,8.3
4,CCCC[C@@H](C(=O)N1CCC[C@H]1C(=O)N1CCN(c2ncccn2)CC1)[C@H](O)C(=O)NO,8.52
5,CCCC[C@@H](C(=O)N1CC[C@H]1C(=O)NCCC)[C@H](O)C(=O)NO,8.17
6,CCCC[C@@H](C(=O)N1CCCC[C@H]1C(=O)NCCC)[C@H](O)C(=O)NO,8.17
7,CCCC[C@@H](C(=O)N1CCC[C@H]1C(=O)NC)[C@@H](F)C(=O)NO,7.57
8,Cc1nc(NC(=O)[C@@H]2CCCN2C(=O)N(CCC2CCCC2)CC(=O)NO)sc1C,8.7
9,O=C(CN(CCC1CCCC1)C(=O)N1CCC[C@H]1C(=O)Nc1ccc2c(c1)OCO2)NO,8.1
10,O=C(CN(CCC1CCCC1)C(=O)N1CCC[C@H]1C(=O)Nc1cccc(O)c1)NO,7.77
11,O=C(CN(CCC1CCCC1)C(=O)N1CCC[C@H]1C(=O)Nc1cnccn1)NO,7.27
12,O=C(CN(CCC1CCCC1)C(=O)N1CCC[C@H]1C(=O)Nc1ncccn1)NO,7.68
13,O=C(CN(CCC1CCCC1)C(=O)N1CCC[C@H]1C(=O)Nc1nccc(-c2ccccc2)n1)NO,7.17
14,CC(C)CCN(CC(=O)NO)C(=O)N1CCC[C@H]1C(=O)Nc1nccs1,6.49
15,Cc1nc(NC(=O)[C@@H]2CCCN2C(=O)N(CCC(C)C)CC(=O)NO)sc1C,8.52
16,CC(C)CCN(CC(=O)NO)C(=O)N1CCC[C@H]1C(=O)Nc1ccc2c(c1)OCO2,7.96
17,Cc1nnc(NC(=O)[C@@H]2CCCN2C(=O)N(CCC(C)C)CC(=O)NO)s1,7.92
18,CCc1nnc(NC(=O)[C@@H]2CCCN2C(=O)N(CCC(C)C)CC(=O)NO)s1,7.74
19,CC(C)CCN(CC(=O)NO)C(=O)N1CCC[C@H]1C(=O)Nc1nnc(-c2ccccc2)s1,7.01
20,CNC(=O)[C@@H]1CCCN1C(=O)N(CCC(C)C)CC(=O)NO,7.21
21,CC(C)CCNC(=O)[C@@H]1CCCN1C(=O)N(CCC(C)C)CC(=O)NO,7.92
22,Cc1cnc(NC(=O)[C@@H]2CCCN2C(=O)N(CCC(C)C)CC(=O)NO)s1,7.2
23,CCCC[C@H](CC(=O)NO)C(=O)N1CCC[C@H]1C(=O)NC,8
24,CCCC[C@H](CC(=O)NO)C(=O)N1CCC[C@H]1C(=O)Nc1nc2ccccc2s1,8.52
25,CCCC[C@H](CC(=O)NO)C(=O)N1CCC[C@H]1C(=O)Nc1nc(-c2ccccc2)cs1,8.04

row,SMILES,pIC50
1,CCCC[C@@H](C(=O)N1CCC[C@H]1C(=O)OC(C)(C)C)[C@@H](O)C(=O)NO,8.22
2,CCCC[C@@H](C(=O)N1CCC[C@H]1C(=O)OC(C)(C)C)[C@@H](OC)C(=O)NO,7.3
3,CCCC[C@@H](C(=O)N1CCC[C@H]1C(=O)OC(C)(C)C)[C@H](OS(=O)(=O)O)C(=O)NO,7.52
4,CCCC[C@@H](C(=O)N1CCC[C@H]1C(=O)NCCC)[C@H](F)C(=O)NO,7.89
5,CCCCNC(=O)[C@@H]1CCCN1C(=O)[C@H](CCCC)[C@H](F)C(=O)NO,7.8
6,CCCCCNC(=O)[C@@H]1CCCN1C(=O)[C@H](CCCC)[C@H](F)C(=O)NO,7.89
7,C=CCNC(=O)[C@@H]1CCCN1C(=O)[C@H](CCCC)[C@@H](F)C(=O)NO,7.8
8,CCCC[C@@H](C(=O)N1CCC[C@H]1C(=O)NCC(O)CC)[C@H](F)C(=O)NO (some centres undefined),8.15
9,CCCC[C@@H](C(=O)N1CCC[C@H]1C(=O)NC1CCCCC1)[C@H](F)C(=O)NO,8.04
10,CCCC[C@@H](C(=O)N1CCC[C@H]1C(=O)Nc1nc(C)c(C)s1)[C@H](F)C(=O)NO,8.7
11,CCCC[C@@H](C(=O)N1CCC[C@H]1C(=O)Nc1nc(C)c(C)s1)[C@@H](F)C(=O)NO,8.7
12,CCCC[C@@H](C(=O)N1CCC[C@H]1C(=O)Nc1ccc(Cl)c(Cl)c1)[C@H](F)C(=O)NO,9
13,CCCC[C@@H](C(=O)N1CCC[C@H]1C(=O)N1CCC1)[C@H](F)C(=O)NO,7.54
14,CCCC[C@@H](C(=O)N1CCC[C@H]1C(=O)N1CCCCC1)[C@H](F)C(=O)NO,7.66
15,CCCC[C@@H](C(=O)N1CCC[C@H]1C(=O)N1CCOCC1)[C@H](F)C(=O)NO,7.89
16,CCCC[C@@H](C(=O)N1CCC[C@H]1C(=O)N1CCN(c2ccccc2F)CC1)[C@H](F)C(=O)NO,8.22
17,CCCC[C@@H](C(=O)N1CCC[C@H]1C(=O)N1CCN(c2ncccn2)CC1)[C@H](F)C(=O)NO,8.22
18,CCCC[C@@H](C(=O)N1CCC[C@H]1C(=O)NC)[C@H](O)C(=O)NO,8
19,CCCC[C@@H](C(=O)N1CCC[C@H]1C(=O)NCCC)[C@H](O)C(=O)NO,8.1
20,CCCCCNC(=O)[C@@H]1CCCN1C(=O)[C@H](CCCC)[C@H](O)C(=O)NO,8.1
21,CCCC[C@@H](C(=O)N1CCC[C@H]1C(=O)NC(C)C)[C@H](O)C(=O)NO,8.15
22,CCCC[C@@H](C(=O)N1CCC[C@H]1C(=O)NC(C)(C)CC)[C@H](O)C(=O)NO,8.1
23,CCCC[C@@H](C(=O)N1CCC[C@H]1C(=O)NC1CCCCC1)[C@H](O)C(=O)NO,8.52
24,CCCC[C@@H](C(=O)N1CCC[C@H]1C(=O)N1CCC1)[C@H](O)C(=O)NO,7.77
